# Measurements reported in patent US4988828A, “Phenoxypropyl derivatives” (Fujirebio Kabushiki Kaisha, priority 1987, dated 1991).
# What was measured:
# [1] = system: stomach; experiment: Gastric mucosal protecting activity (ulcer caused by 0.4N-HCl+50% ethanol); assay type: in vivo, rat (male Donryu); settings: 30 minutes before necrotizing substance
# Description: Male Donryu rats (150 to 250 g) which had been caused to fast for 24 hours were used. The test compound was administered in a dose of 10 mg/kg. p.o., and 30 minutes later, a necrotizing substance (0.4N-HCl+50% ethanol) was administered orally in a dose of 5 ml/kg. One hour after the administration of the necrotizing substance, the stomach was dissected out and fixed with formalin. The area of ulcer which occurred was measured, and by comparison with a control group, the percent inhibition of the test compound was determined.
# [2] = target: T1, histamine H2 receptor (Cavia porcellus, UniProt P47747); experiment: Histamine H2 antagonizing activity (isolated guinea pig right atrium, histamine dose-response); parameters: species or system guinea pig (Hartley-strain); settings: 32° C., test compound 1×10^-6, 1×10^-7 M, 10 min before histamine, Van Rossum method, read-out: pA2 (converted)
# T1 construct: The right atrium was isolated in the Krebs-Henselite solution; from tissue; host or cells: isolated right atrium of male Hartley-strain guinea pigs
# T1 sequence (P47747 whole entry): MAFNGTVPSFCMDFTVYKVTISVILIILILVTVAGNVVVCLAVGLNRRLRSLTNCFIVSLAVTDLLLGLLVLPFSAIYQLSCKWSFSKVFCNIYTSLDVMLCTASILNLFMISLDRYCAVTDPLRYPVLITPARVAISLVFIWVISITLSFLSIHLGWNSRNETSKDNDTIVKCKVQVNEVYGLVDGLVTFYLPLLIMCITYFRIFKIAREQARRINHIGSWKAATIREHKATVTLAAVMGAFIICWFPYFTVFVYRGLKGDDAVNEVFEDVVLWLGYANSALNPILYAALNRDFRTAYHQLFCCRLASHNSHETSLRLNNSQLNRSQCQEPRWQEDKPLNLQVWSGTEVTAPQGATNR
# Description: Hartley-strain guinea pigs (male, weight 300 to 350 g) were killed by a blow on the head, and the heart was extracted. The right atrium was isolated in the Krebs-Henselite solution through which a mixed gas (O2 95%, CO2 5%) was circulated. The right atrium was suspended in an organ bath (30 ml) filled with the Krebs-Henselite solution kept at 32° C. The mixed gas was circulated through the organ bath, and a diastolic tension of 1 g was maintained. Contraction of the right atrium was recorded by a force-displacement transducer, and the heart rate was counted by a heart rate meter interlocked with the transducer.
# Histamine (used in the form of dihydrochloride) was added cumulatively to the organ bath in a concentration of 1×10^-8 M to 3×10^-5 M. Thus, the dose-response curve of histamine was obtained. The inside of the organ bath was washed several times, and the test compound (1×10^-6, 1×10^-7 M) was added to the organ bath. Ten minutes later, the dose-response curve of histamine in the presence of the test compound was obtained.
# The pA2 value of the test compound was determined from the first histamine dose-response curve and the histamine dose-response curve in the presence of the test compound by the method of J. M. Van Rossum (Arch. Int. Pharmacodyn. Ther., 143-299, 1963).
Structure (SMILES),"Percent inhibition (area of ulcer, vs control group) ([1]; 10 mg/kg p.o.)","Percent inhibition (area of ulcer, vs control group) ([1]; 30 mg/kg p.o.) [%]",Kb [2] [µM]
"CN/C(=N/CCSCc1nc[nH]c1C)NC#N [cimetidine, reference compound]",No inhibition was observed,11,–
"O=C(CSCc1ccco1)NCCCOc1cccc(CN2CCCCC2)c1 [Example 12, N-(3-[3-(piperidinomethyl)phenoxy]propyl)-2-(furfurylthio)acetamide]",63%,–,–
"O=C(C[S+]([O-])Cc1ccco1)NCCCOc1cccc(CN2CCCCC2)c1 (centres unmarked) [Example 13, N-{3-[3-(piperidinomethyl)phenoxy]propyl}-2-(furfurylsulfinyl)acetamide]",72%,–,0.0794
